Experimental data taken from patent US11827693B2, “Composition and methods based on neutralizing antibodies delivered intranasally for enhanced therapeutic efficacy” (priority 2013, dated 2023).

Tested on: H1 influenza virus A/Puerto Rico/8/1934 (PR8)
Set-up: species or system BALB/c mice
Details: mouse, in vivo

CCOC(=O)C1=C[C@@H](OC(CC)CC)[C@H](NC(C)=O)[C@@H](N)C1 [Tamiflu]
protection: completely ineffective in protection
